Measured values published in patent US20260209242A1, “CAMPTOTHECIN DERIVATIVE, PHARMACEUTICAL COMPOSITION, AND PREPARATION METHOD AND USE THEREFOR” (priority 2022, published 2026).
In brackets after ≈: the same amount, converted by molar mass. Read-outs that look alike come from different tables or passages of the source.

Experiments:
[1] = Kinetic solubility test in PBS 7.4; type: physicochemical
Procedure: 10 mM stock solutions of the test substances 6-2, 11-2, 17-2, Dxd, and the control drugs progesterone and diclofenac were prepared using DMSO respectively.
15 μL of 10 mM stock solution of each of the test substances was added to a corresponding position of a corresponding 96-well plate in a specified sequence. 485 μL of the PBS 7.4 was added to a corresponding vial on a sample plate. The experiment was run in duplicate. Each vial was additionally provided with a stirring rod and was plugged. Then, the sample plate was transferred in a thermostatic mixer, and oscillated at a revolving speed of 1,100 rpm at 25° C. for 2 h. 2 h later, the plug was removed, the stirring rod was attracted away with a large magnet, and then the sample was transferred from the sample plate to the filter plate. Negative pressure was generated using a vacuum pump to filter the sample. 5 μL of filtrate and 5 μL of blank DMSO were transferred to another sample plate, and then 490 μL of internal standard water (acetonitrile:water=1:1) containing the internal standard was added. Depending on peak shapes, a certain proportion of internal standard water may be used to dilute the sample diluent to obtain better peak shapes.
6 μL was transferred from the 10 mM DMSO stock solution plate to a blank plate, and was prepared into a 300 μM standard substance solution with addition of 194 μL of DMSO. 5 μL was transferred from the 300 μM standard substance solution plate to still another blank plate, and then 5 μL of blank buffer and 490 μL of the internal standard water containing the internal standard (acetonitrile:water=1:1) were added until a final concentration of the standard substance solution was 3 μM.
An injection plate was transferred on an injection tray of an autosampler to evaluate the sample by LC/MS analysis.
All calculations were performed using Microsoft Excel.
The sample filtrate was analyzed and quantified by qualitative and quantitative LC/MS of standard substance peaks at known concentrations. The calculation formula for the solubility values of the reference drugs and the test substances are as follows:
[Sample] is the compound concentration, DFSample refers to the sample dilution factor, [STD] is the standard substance concentration of the compound, AREAStd is the standard substance peak area of the compound, and AREASample is the peak area of the compound sample.

CYP3A4 = target: T1, CYP3A4 (Homo sapiens, UniProt P08684); assay: Inhibition on human hepatomicrosomes CYP3A4; type: in vitro ADME
T1 construct: from tissue; host or cells: human liver microsomes
T1 sequence (P08684 whole entry): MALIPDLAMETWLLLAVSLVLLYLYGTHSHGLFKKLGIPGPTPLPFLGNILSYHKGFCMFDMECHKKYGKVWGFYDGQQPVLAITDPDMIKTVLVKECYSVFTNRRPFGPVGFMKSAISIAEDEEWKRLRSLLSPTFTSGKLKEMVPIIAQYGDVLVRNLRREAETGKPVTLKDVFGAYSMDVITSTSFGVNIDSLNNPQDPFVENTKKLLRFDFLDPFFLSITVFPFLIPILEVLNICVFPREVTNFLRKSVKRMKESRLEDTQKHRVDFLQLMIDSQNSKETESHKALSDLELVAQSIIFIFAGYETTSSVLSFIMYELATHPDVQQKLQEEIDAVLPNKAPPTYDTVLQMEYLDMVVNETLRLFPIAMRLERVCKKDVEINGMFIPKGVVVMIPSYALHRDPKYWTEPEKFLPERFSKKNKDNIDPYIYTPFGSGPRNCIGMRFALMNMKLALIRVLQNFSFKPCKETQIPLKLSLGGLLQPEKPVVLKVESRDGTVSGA

[2] = Stability of compounds in human plasma; type: in vitro ADME
Procedure: • (1) 199 μL of human plasma was added to the culture plate of each cell. The culture plate was preheated to 37° C., and kept at this temperature for 15 min. • (2) After preincubation, 1 μL of 1 mmol/L each test compound and 1 μL of 1 mmol/L control compound were added to 199 μL of plasma, so that a final concentration of each test compound was 5 μmol/L and that of the control compound was 5 gmol/L. The final concentration of the organic solvent was 0.5%. The experiment would be duplicated twice. • (3) Reaction samples were incubated at 37° C. • (4) The reaction was stopped by adding 600 μL of cold methanol containing the internal standard at 0, 1, 2, 6, and 24 h. Each sample was vortex mixed for 10 min, and then centrifuged at 3,220 g for 30 min to precipitate the protein. […] Based on the signal response and peak shapes of liquid chromatography-mass spectrometry (LC-MS), the supernatant would be diluted with ultrapure water.
All calculations were performed using Microsoft Excel. The peak area ratio was determined from the chromatogram of extracted ions. The percentage of compounds remaining at each time point was calculated as per the following formula: […]

[3] = Stability of compounds in human plasma; type: in vitro ADME; conditions: 5 μmol/L

**Q.** With CC[C@@]1(O)C(=O)OCc2c1cc1n(c2=O)Cc2c-1nc1cc(F)c(C)c3c1c2[C@@H](NC(=O)[C@@H](O)C1CC1)CCC3 [Compound 11-2, (S)-2-cyclopropyl-N-((1S,10S)-10-ethyl-6-fluoro-10-hydroxy-5-methyl-11,14-dioxo-1,2,3,4,10,11,14,16-octahydro-13H-cyclohepta[de]pyrano[3′,4′:6,7]indolizino[1,2-b]quinolin-1-yl)-2-hydroxyacetamide] as the molecule, how does the “solubility in the PBS 7.4 compared with Dxd (in words)” value [1] read?
**A.** Its value is “significantly better solubility in the PBS 7.4 than Dxd”.

**Q.** And the solubility at 2 h ([1]; 25 °C, pH 7.4, aqueous buffer, kinetic from dmso stock)?
**A.** The solubility at 2 h was 34 µM (≈ 18.6 µg/mL).

**Q.** What about the IC50 (CYP3A4) of the same molecule?
**A.** Its IC50 is greater than 30 µM.

**Q.** And the IC50 (CYP3A4; read-out: 3A4T (IC50 μM), human hepatomicrosomes, substrate testosterone)?
**A.** Its IC50 is greater than 30 µM.

**Q.** And the “Residual percentage (%) 1 h” value ([2]; 1 h, 5 μmol/L)?
**A.** The value was 96.80%.

**Q.** What about the “Residual percentage (%) 2 h” value ([2]; 2 h, 5 μmol/L) of the same molecule?
**A.** The value was 92.06%.

**Q.** And the “Residual percentage (%) 6 h” value ([2]; 6 h, 5 μmol/L)?
**A.** Its value is 94.45%.

**Q.** What about the “Residual percentage (%) 24 h” value ([2]; 24 h, 5 μmol/L) of the same molecule?
**A.** Its value is 88.81%.

**Q.** What about the “stability in human plasma (in words)” value ([2]; plasma) of the same molecule?
**A.** The value was “good stability in human plasma”.

**Q.** And the “Residual percentage (%) 4 h” value [3]?
**A.** The value was 93.40%.
